This note sets out measurements from PMC4818699 (Angewandte Chemie (International ed. in English), 2016).

This test relates to MoeN5 (MoeN5-CS) (Streptomyces viridosporus). As to the kind of experiment: X-ray crystal structure of the complex. Format: binding. To be noted: allylic site S1, near Asp-rich motifs; also PDB 5B03.
MoeN5 (MoeN5-CS) (Streptomyces viridosporus), sequence (A0A010 1-260): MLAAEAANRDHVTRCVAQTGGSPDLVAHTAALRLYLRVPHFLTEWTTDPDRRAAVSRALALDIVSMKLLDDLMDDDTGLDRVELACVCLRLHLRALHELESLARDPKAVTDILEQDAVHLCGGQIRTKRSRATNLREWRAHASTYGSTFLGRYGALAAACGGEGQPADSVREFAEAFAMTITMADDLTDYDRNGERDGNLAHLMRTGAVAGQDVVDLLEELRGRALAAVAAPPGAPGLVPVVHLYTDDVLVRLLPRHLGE

With `CC(C)=CCC/C(C)=C/COP(=O)(O)OP(=O)(O)O` [compound 6, geranyl diphosphate], the “X-ray crystal structure of the complex” value is “GPP binds to MoeN5-CS close to the Asp-rich domains”.
